Assay results reported in patent publication US20250171437A1 (Agios Pharmaceuticals,Inc., priority 2022, published 2025).

Target: T1, human PAH with the R408W mutation (A375 R408W cells) (Homo sapiens, UniProt P00439, R408W)
T1 construct: expressed in transfected cells
T1 sequence (P00439 1-452 R408W): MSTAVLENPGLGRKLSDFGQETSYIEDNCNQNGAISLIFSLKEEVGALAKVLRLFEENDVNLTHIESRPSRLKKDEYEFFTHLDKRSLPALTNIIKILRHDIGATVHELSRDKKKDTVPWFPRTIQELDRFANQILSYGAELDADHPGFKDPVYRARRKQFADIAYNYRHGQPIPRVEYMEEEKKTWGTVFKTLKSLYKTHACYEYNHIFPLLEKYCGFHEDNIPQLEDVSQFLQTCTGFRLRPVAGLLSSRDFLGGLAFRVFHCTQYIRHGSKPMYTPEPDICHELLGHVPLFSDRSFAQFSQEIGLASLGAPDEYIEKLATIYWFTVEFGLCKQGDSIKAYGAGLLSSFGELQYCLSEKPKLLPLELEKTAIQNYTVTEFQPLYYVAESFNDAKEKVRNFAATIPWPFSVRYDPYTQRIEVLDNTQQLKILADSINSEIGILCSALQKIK
Assay: Cell Based Phenylalanine Flux Assay
Details: 24 hrs with compound, then 20 μM sepiapterin and 800 μM 13C9,15N-Phenylalanine for 4 hours, 13C-Tyrosine by LC-MS, average where tested multiple times
In short: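 AC50 is derived from LC-MS of 13C-tyrosine in the media after a 4 h pulse of 800 μM 13C9,15N-phenylalanine plus 20 μM sepiapterin. The A375 R408W PAH cells had received duplicate 10-point, 2-fold compound dilutions (0.5% DMSO) for 24 h beforehand.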

[1] = A375 cells expressing R408W PAH

With `CC(C)(O)c1nc(C(F)F)c(C(=O)N2CCc3[nH]cnc3C2c2nc3cc(F)c(F)cc3o2)o1` (stereo not shown) the AC50 [1] was 1 to 5 µM.

`CC(F)(F)c1ncoc1C(=O)N1CCc2[nH]cnc2[C@H]1c1nc2cc(F)ccc2o1` [Example 153, (S)-(4-(1,1-difluoroethyl)oxazol-5-yl)(4-(5-fluorobenzo[d]oxazol-2-yl)-6,7-dihydro-1H-imidazo[4,5-c]pyridin-5(4H)-yl)methanone] gave an AC50 (A375 R408W cells) of 0.5 to 1 µM.

For `O=C(c1oc(C2(O)CC2)nc1C(F)F)N1CCc2[nH]cnc2[C@H]1c1nc2cccc(F)c2o1` [Example 214, (S)-(4-(difluoromethyl)-2-(1-hydroxycyclopropyl)oxazol-5-yl)(4-(7-fluorobenzo[d]oxazol-2-yl)-6,7-dihydro-1H-imidazo[4,5-c]pyridin-5(4H)-yl)methanone], the AC50 (A375 R408W cells) was at most 0.5 µM.

Work on `Cn1cnc(-c2nnc(C(=O)N3CCc4[nH]cnc4[C@@H]3c3nc4c(F)ccc(F)c4o3)o2)c1` [Example 818, (R)-(4-(4,7-difluorobenzo[d]oxazol-2-yl)-6,7-dihydro-1H-imidazo[4,5-c]pyridin-5(4H)-yl)(5-(1-methyl-1H-imidazol-4-yl)-1,3,4-oxadiazol-2-yl)methanone] yielded an AC50 (A375 R408W cells) of 1 to 5 µM.

Work on `Cc1nc(C(=O)N2CCc3[nH]cnc3[C@@H]2c2nc3cccc(C)c3o2)n(C)n1` [Example 908, (R)-(1,3-dimethyl-1H-1,2,4-triazol-5-yl)(4-(7-methylbenzo[d]oxazol-2-yl)-6,7-dihydro-1H-imidazo[4,5-c]pyridin-5(4H)-yl)methanone] yielded an AC50 (A375 R408W cells) of 1 to 5 µM.

In the case of `Cn1cncc1-c1nc(C(F)F)c(C(=O)N2CCc3[nH]cnc3[C@@H]2c2nc3cccc(F)c3o2)o1` [Example 691, (R)-(4-(difluoromethyl)-2-(1-methyl-1H-imidazol-5-yl)oxazol-5-yl)(4-(7-fluorobenzo[d]oxazol-2-yl)-6,7-dihydro-1H-imidazo[4,5-c]pyridin-5(4H)-yl)methanone], the AC50 (A375 R408W cells) is reported as 0.5 to 1 µM.

With `Cn1nc(C(C)(C)C)nc1C(=O)N1CCc2[nH]cnc2C1c1nc2ccccc2o1` (stereo not shown) the AC50 [1] was 1 to 5 µM.

With `COc1cccc2nc([C@@H]3c4nc[nH]c4CCN3C(=O)c3cc(C)nn3C)oc12` [Example 821, (S)-(1,3-dimethyl-1H-pyrazol-5-yl)(4-(7-methoxybenzo[d]oxazol-2-yl)-6,7-dihydro-1H-imidazo[4,5-c]pyridin-5(4H)-yl)methanone] the AC50 (A375 R408W cells) was at most 0.5 µM.

In the case of `O=C(c1nnc(-c2ccccn2)o1)N1CCc2[nH]cnc2[C@@H]1c1nc2cccc(F)c2o1` [Example 336, (R)-(4-(7-fluorobenzo[d]oxazol-2-yl)-6,7-dihydro-1H-imidazo[4,5-c]pyridin-5(4H)-yl)(5-(pyridin-2-yl)-1,3,4-oxadiazol-2-yl)methanone], the AC50 (A375 R408W cells) is reported as 0.5 to 1 µM.

`Cc1cccc2oc([C@@H]3c4nc[nH]c4CCN3C(=O)c3nnc(-c4ccccn4)o3)nc12` [Example 482, (S)-(4-(4-methylbenzo[d]oxazol-2-yl)-6,7-dihydro-1H-imidazo[4,5-c]pyridin-5(4H)-yl)(5-(pyridin-2-yl)-1,3,4-oxadiazol-2-yl)methanone] gave an AC50 (A375 R408W cells) of at most 0.5 µM.

`Cc1ccc2nc(C3c4nc[nH]c4CCN3C(=O)c3ocnc3C#N)oc2c1` (stereo not shown) was tested, and the AC50 [1] was at least 5 µM.

`O=C1CN(CCc2ccc3c(C(=O)N4CCc5[nH]cnc5C4c4nc5cc(F)ccc5o4)cnn3c2)CCN1` (stereo not shown) gave an AC50 [1] of 1 to 5 µM.

`O=C(c1cnn2cc(N3CCC(F)CC3)ccc12)N1CCc2[nH]cnc2C1c1nc2cc(F)ccc2o1` (stereo not shown) was tested, and the AC50 [1] was 1 to 5 µM.

With `Cn1cc(-c2nnc(C(=O)N3CCc4[nH]cnc4[C@H]3c3nc4cccc(F)c4o3)o2)cn1` [Example 191, (S)-(4-(7-fluorobenzo[d]oxazol-2-yl)-6,7-dihydro-1H-imidazo[4,5-c]pyridin-5(4H)-yl)(5-(1-methyl-1H-pyrazol-4-yl)-1,3,4-oxadiazol-2-yl)methanone] the AC50 (A375 R408W cells) was 0.5 to 1 µM.

Molecule `O=C(c1nnc(-c2cnn(C(F)F)c2)o1)N1CCc2[nH]cnc2C1c1nc2cc(F)ccc2o1` (stereo not shown) has an AC50 [1] of 1 to 5 µM.

`Cc1nnc(C(=O)N2CCc3[nH]cnc3C2c2nc3cc(F)ccc3o2)o1` (stereo not shown) was tested, and the AC50 [1] was at least 5 µM.

For `CN1CCN(c2ccc3c(C(=O)N4CCc5[nH]cnc5[C@H]4c4nc5cc(F)ccc5o4)cnn3c2)CC1` [Example 65, (S)-(4-(5-fluorobenzo[d]oxazol-2-yl)-6,7-dihydro-1H-imidazo[4,5-c]pyridin-5(4H)-yl)(6-(4-methylpiperazin-1-yl)pyrazolo[1,5-a]pyridin-3-yl)methanone], the AC50 (A375 R408W cells) was 1 to 5 µM.

For `Cc1cccc2nc([C@H]3c4nc[nH]c4CCN3C(=O)c3cnc(C(C)(C)O)o3)oc12` (single isomer, unassigned), the AC50 [1] was at least 5 µM.

`O=C(CCc1ncco1)N1CCc2[nH]cnc2[C@H]1c1nc2c(F)cccc2o1` [Example 887, (S)-1-(4-(4-fluorobenzo[d]oxazol-2-yl)-6,7-dihydro-1H-imidazo[4,5-c]pyridin-5(4H)-yl)-3-(oxazol-2-yl)propan-1-one] was tested, and the AC50 (A375 R408W cells) was 0.5 to 1 µM.

Molecule `CC(C)(O)c1nc(C(F)F)c(C(=O)N2CCc3[nH]cnc3[C@@H]2c2nc3c(C(F)(F)F)cccc3o2)o1` [Example 464, (R)-(4-(difluoromethyl)-2-(2-hydroxypropan-2-yl)oxazol-5-yl)(4-(4-(trifluoromethyl)benzo[d]oxazol-2-yl)-6,7-dihydro-1H-imidazo[4,5-c]pyridin-5(4H)-yl)methanone] has an AC50 (A375 R408W cells) of 0.5 to 1 µM.

Molecule `O=C(c1ocnc1C(F)F)N1CCc2[nH]cnc2[C@@H]1c1nc2cccc(C(F)(F)F)c2o1` [Example 494, (R)-(4-(difluoromethyl)oxazol-5-yl)(4-(7-(trifluoromethyl)benzo[d]oxazol-2-yl)-6,7-dihydro-1H-imidazo[4,5-c]pyridin-5(4H)-yl)methanone] has an AC50 (A375 R408W cells) of at most 0.5 µM.

Work on `COc1cccc2oc([C@@H]3c4nc[nH]c4CCN3C(=O)c3ccnn3C(F)F)nc12` [Example 603, (S)-(1-(difluoromethyl)-1H-pyrazol-5-yl)(4-(4-methoxybenzo[d]oxazol-2-yl)-6,7-dihydro-1H-imidazo[4,5-c]pyridin-5(4H)-yl)methanone] yielded an AC50 (A375 R408W cells) of at most 0.5 µM.

`CC(C)(O)c1nc(C(F)F)c(C(=O)N2CCc3[nH]cnc3[C@H]2c2nc3c(OC(F)(F)F)cccc3o2)o1` [Example 533, (S)-(4-(difluoromethyl)-2-(2-hydroxypropan-2-yl)oxazol-5-yl)(4-(4-(trifluoromethoxy)benzo[d]oxazol-2-yl)-6,7-dihydro-1H-imidazo[4,5-c]pyridin-5(4H)-yl)methanone] was tested, and the AC50 (A375 R408W cells) was at most 0.5 µM.

`CN(C)c1nnc(C(=O)N2CCc3[nH]cnc3C2c2nc3cc(F)ccc3o2)o1` (stereo not shown) was tested, and the AC50 [1] was 1 to 5 µM.

`O=C(c1cnn(CC(F)(F)F)c1C(F)F)N1CCc2[nH]cnc2[C@@H]1c1nc2cc(F)ccc2o1` [Example 184, (R)-(5-(difluoromethyl)-1-(2,2,2-trifluoroethyl)-1H-pyrazol-4-yl)(4-(5-fluorobenzo[d]oxazol-2-yl)-6,7-dihydro-1H-imidazo[4,5-c]pyridin-5(4H)-yl)methanone] showed an AC50 (A375 R408W cells) of 1 to 5 µM.

With `Cc1nc(-c2ccn(C)n2)oc1C(=O)N1CCc2[nH]cnc2[C@H]1c1nc2cc(F)ccc2o1` [Example 825, (S)-(4-(5-fluorobenzo[d]oxazol-2-yl)-6,7-dihydro-1H-imidazo[4,5-c]pyridin-5(4H)-yl)(4-methyl-2-(1-methyl-1H-pyrazol-3-yl)oxazol-5-yl)methanone] the AC50 (A375 R408W cells) was 1 to 5 µM.

Molecule `COCc1ncc(C(=O)N2CCc3[nH]cnc3C2c2nc3cc(F)ccc3o2)o1` (stereo not shown) has an AC50 [1] of at least 5 µM.

Molecule `Cc1nc(C(C)(C)O)oc1C(=O)N1CCc2[nH]cnc2C1c1nc2ccc(F)cc2o1` (stereo not shown) has an AC50 [1] of at least 5 µM.

In the case of `O=C(c1cnn2cc(CCN3CC(F)C3)ccc12)N1CCc2[nH]cnc2C1c1nc2cc(F)ccc2o1` (stereo not shown), the AC50 [1] is reported as at least 5 µM.

Molecule `Cn1nc(Cl)nc1C(=O)N1CCc2[nH]cnc2C1c1nc2cc(F)ccc2o1` (stereo not shown) has an AC50 [1] of 1 to 5 µM.

`O=C(c1oc(-c2ccncc2)nc1C(F)F)N1CCc2[nH]cnc2[C@@H]1c1nc2cc(F)ccc2o1` [Example 422, (R)-(4-(difluoromethyl)-2-(pyridin-4-yl)oxazol-5-yl)(4-(5-fluorobenzo[d]oxazol-2-yl)-6,7-dihydro-1H-imidazo[4,5-c]pyridin-5(4H)-yl)methanone] was tested, and the AC50 (A375 R408W cells) was 0.5 to 1 µM.

In the case of `O=C(c1ocnc1C(F)F)N1CCc2[nH]cnc2[C@H]1c1nc2c(C(F)(F)F)cccc2o1` [Example 465, (S)-(4-(difluoromethyl)oxazol-5-yl)(4-(4-(trifluoromethyl)benzo[d]oxazol-2-yl)-6,7-dihydro-1H-imidazo[4,5-c]pyridin-5(4H)-yl)methanone], the AC50 (A375 R408W cells) is reported as at most 0.5 µM.

In the case of `Cc1ccc2c(C(=O)N3CCc4[nH]cnc4[C@@H]3c3nc4c(F)cccc4o3)cnn2c1` [Example 538, (R)-(4-(4-fluorobenzo[d]oxazol-2-yl)-6,7-dihydro-1H-imidazo[4,5-c]pyridin-5(4H)-yl)(6-methylpyrazolo[1,5-a]pyridin-3-yl)methanone], the AC50 (A375 R408W cells) is reported as 1 to 5 µM.

In the case of `Cc1cccc2nc([C@H]3c4nc[nH]c4CCN3C(=O)c3oc(C(C)(C)O)nc3C(F)F)oc12` [Example 391, (R)-(4-(difluoromethyl)-2-(2-hydroxypropan-2-yl)oxazol-5-yl)(4-(7-methylbenzo[d]oxazol-2-yl)-6,7-dihydro-1H-imidazo[4,5-c]pyridin-5(4H)-yl)methanone], the AC50 (A375 R408W cells) is reported as 1 to 5 µM.
